The data set in a line: Human HepG2 cell viability assay in 384 well format. The format is toxicity, cell-based. The arrangement: dose 125 nL, time 70.5 hour; cytotoxicity at 70.5 h: concentration not given beside the values. Conditions: HepG2 cells, read-out: Inhibition.

In the case of `O=C1CN(Cc2nnc(-c3ccc(Cl)cc3)o2)CCN1`, the cytotoxicity at 70.5 h was -9.87%.

Regarding `CC(Cn1cccn1)NC(=O)Nc1ccc(N2CCCCC2)nc1` (stereo not given), the cytotoxicity at 70.5 h was -7.26%.

Regarding `Cc1ccc(NC(=O)NC(C)Cn2cccn2)cc1` (stereo not given), the cytotoxicity at 70.5 h was -11.9%.

Turning to `CC(NC(=O)N(C)Cc1ccc2c(c1)OCCO2)c1nncn1C` (stereo not given), the cytotoxicity at 70.5 h was -0.921%.

`Cc1cc(NC(=O)NCCc2ccccc2)n(C)n1`: the cytotoxicity at 70.5 h is -7.09%.

As for `CC(C)(O)CN1CCN(C(=O)c2ccn(-c3cccc(F)c3)n2)CC1`, the cytotoxicity at 70.5 h was -4.39%.

With `CCC(O)CN1CCN(C(=O)c2ccn(-c3cccc(F)c3)n2)CC1` (stereo not given), the cytotoxicity at 70.5 h is -5.3%.

Consider `COC(=O)c1ccc(NC(=O)[C@@H]2CCCN2C(=O)c2ccco2)s1`, for which the cytotoxicity at 70.5 h was -7.02%.

`Cc1cc(NC(=O)CN2CCc3nn(C)c(=O)cc3C2)no1`: the cytotoxicity at 70.5 h is -9.67%.

On to `CSC(C)(C)CNC(=O)Nc1cccc(-c2nccn2C)c1`, for which the cytotoxicity at 70.5 h was -3.46%.

With `O=C(CSc1ccc2c(c1)OCCO2)NS(=O)(=O)c1ccccc1Cl`, the cytotoxicity at 70.5 h was -4.64%.

Turning to `O=C(CSc1ccc2c(c1)OCCO2)NS(=O)(=O)c1ccccc1Br`, the cytotoxicity at 70.5 h was -6.54%.

As to `COc1ccc(-c2nc(CN3CCCS3(=O)=O)co2)cc1`, the cytotoxicity at 70.5 h stood at 14.5%.

With `CN1CCN(c2nc(-c3cnn(C)c3)cs2)CC1`, the cytotoxicity at 70.5 h was -6.42%.

For `CC(C)(C)c1nnc(CNc2c(F)cccc2-n2cccn2)o1`, the cytotoxicity at 70.5 h was -8.76%.

Take `O=S1(=O)CCCN1Cc1coc(-c2ccc(C(F)(F)F)cc2)n1`: the cytotoxicity at 70.5 h amounted to 11%.

Turning to `CCC(CC)C(O)CNC(=O)Nc1cccc(-c2nccn2C)c1` (stereo not given), the cytotoxicity at 70.5 h was -3.63%.

Regarding `CC(=O)NCCc1ccc(S(=O)(=O)N(C)C(C)CC(C)C)s1` (stereo not given), the cytotoxicity at 70.5 h was -7.26%.

As for `OCCN1CCN(Cc2cc3c(cc2Br)OCCO3)CC1`, the cytotoxicity at 70.5 h is 20.1%.

Regarding `CCc1n[nH]c(C2CN(C(=O)Cc3ccc(C)nc3)CCO2)n1` (stereo not given), the cytotoxicity at 70.5 h worked out at 9.01%.

For `CC(C#N)CSc1ccccc1NCC(=O)NC(C1CC1)C1CC1` (stereo not given), the cytotoxicity at 70.5 h was 8.68%.

As to `CCNc1nnc(SCC(=O)N2CCN(Cc3ccc(Cl)s3)CC2)s1`, the cytotoxicity at 70.5 h is -0.322%.

In the case of `Cn1cnc(S(=O)(=O)N2CCOCC2)c1Cl`, the cytotoxicity at 70.5 h is -3.62%.

Take `CN1CCN(S(=O)(=O)c2ncn(C)c2Cl)CC1`: the cytotoxicity at 70.5 h is -5.44%.

With `CC(C)N1CCN(S(=O)(=O)c2ncn(C)c2Cl)CC1`, the cytotoxicity at 70.5 h is -4.74%.

As to `O=C1NCCCCC1Sc1nnc(N2CCCC2)n1C1CC1` (stereo not given), the cytotoxicity at 70.5 h is 6.7%.

Consider `CC1CCN(CCNC(=O)C2CCN(C(=O)C(C)(C)C)CC2)CC1`, for which the cytotoxicity at 70.5 h is -3.74%.

As to `CC(=O)N1CCC(C(=O)NCCN2CCCC(C)C2)CC1` (stereo not given), the cytotoxicity at 70.5 h was -7.29%.

As for `COc1ccc(NC(C)C(=O)N2CCCC2)cn1` (stereo not given), the cytotoxicity at 70.5 h is -1.03%.

Turning to `NC(=O)COc1ccc(CNC(=O)CN2CCc3ccccc32)cc1`, the cytotoxicity at 70.5 h was determined as 0.272%.

As for `CC(=O)NCCNC(=O)Nc1cccc(Cl)c1SC(F)F`, the cytotoxicity at 70.5 h was -0.195%.

Regarding `CC(C#N)CSc1ccccc1NCC(=O)NC(=O)NC(C)(C)C` (stereo not given), the cytotoxicity at 70.5 h was -2.56%.

`CC(C#N)CSc1ccccc1NCC(=O)NCc1cccs1` (stereo not given): the cytotoxicity at 70.5 h stood at 0.858%.

Take `CCNC(=O)CNC(=O)Nc1cccc(Cl)c1SC(F)F`: the cytotoxicity at 70.5 h is 0.0144%.

In the case of `NS(=O)(=O)N1CCc2ccc(NC(=O)Cc3ccccc3F)cc21`, the cytotoxicity at 70.5 h was 22.4%.

Take `Cc1nc(C2CCCN(C(=O)c3csc(C)n3)C2)no1` (stereo not given): the cytotoxicity at 70.5 h was determined as 4.29%.

In the case of `Cc1nc(CC(=O)N2CCOC(c3nc(C(C)(C)C)n[nH]3)C2)cs1` (stereo not given), the cytotoxicity at 70.5 h is 20.6%.

In the case of `Cc1ccn(-c2ccccc2NCc2cscn2)n1`, the cytotoxicity at 70.5 h is 10.6%.

Consider `O=C(Nc1ccnc(OC2CCOC2)c1)c1ccc(F)cc1Cl` (stereo not given), for which the cytotoxicity at 70.5 h came to 0.257%.

As to `CN(C)CCN(Cc1ccc(Cl)cc1)C(=O)c1cnccn1`, the cytotoxicity at 70.5 h amounted to 3.24%.

(Values after ChEMBL document CHEMBL3507680, “University of Dundee, Gates Library screen for HepG2 cell viability”.)
